Earlier results on one compound are cited in patent publication US20050124660A1, “Novel medical uses of compounds showing CB1-antagonistic activity and combination treatment involving said compounds” (priority 2003, published 2005).

For series [1] the following is noted: cited from earlier work.
For series [2] the following is noted: in vivo; cited from earlier work.
The conditions of series [3]: cited from earlier work. The source holds these as a separate data set.
[4] abbreviates: treatment groups 60, 120 and 240 mg.

Read-outs that look alike come from different tables or passages of the source.

For the compound `CCCCCCCCCCCCCCCCOc1nc2ccc(C)cc2c(=O)o1` [ATL-962, 2-hexadecyloxy-6-methyl-4H-3,1-benzoxazin-4-one], the “weight compared to placebo” value in series [1] (60, 120 and 240 mg, obese patients) is on record as “significant reduction in weight”. The safety and tolerability entry in series [1] (phase IIb, obese patients) is “safe and generally well tolerated”. Moreover, in series [1] (setting [4]), the HDL-cholesterol levels entry is on record as “no difference”, the LDL-cholesterol result is listed as “decreased” and the Total cholesterol entry was “decreased”. Also, in series [2], the preclinical toxicity entry was “no toxicity was observed”. For the same compound, in series [3] (50 mg to 300 mg), the “subjects with a 3-fold or greater increase in fat excretion compared to placebo” value was 55% and the “subjects with a 7-fold or greater increase in fat excretion compared to placebo” value is reported as 27%. In addition, the safety and tolerability entry in series [3] (phase Ib, healthy male volunteers) was “safe and well tolerated”.
